In PubChem BioAssay AID330 (DTP/NCI, 2004):
“And” between values parts separate entries of the source, which are not always exact repeats. Equal values may be shown once. Toxic doses and inconclusive results are not listed.

System: P388 leukemia ip, CD2F1 mice, survival T/C
Assay: NCI In Vivo Anticancer Drug Screen. Data for tumor model P388 Leukemia (intraperitoneal) in CD2F1 (CDF1) mice
Conditions: endpoint: median survival time, higher = longer survival
Summary of the method: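 Mice carrying the transplanted tumor received test compound or vehicle. Survival was recorded in each group, and the value is the treated-group measurement divided by that of the vehicle-treated control group.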

[1] = dose: 60.0 mg/kg/injection, schedule: Q01DX005 (ip), vehicle: saline
[2] = dose: 120.0 mg/kg/injection, schedule: Q01DX005 (ip), vehicle: saline
[3] = dose: 100.0 mg/kg/injection, schedule: Q04DX002 (ip), vehicle: saline with Tween-80
[4] = dose: 50.0 mg/kg/injection, schedule: Q01DX009 (ip), vehicle: saline with Tween-80
[5] = dose: 50.0 mg/kg/injection, schedule: Q01DX005 (ip), vehicle: saline with Tween-80
[6] = dose: 100.0 mg/kg/injection, schedule: Q01DX005 (ip), vehicle: saline with Tween-80
[7] = dose: 100.0 mg/kg/injection, schedule: Q04DX003 (ip), vehicle: saline
[8] = dose: 200.0 mg/kg/injection, schedule: Q04DX003 (ip), vehicle: saline
[9] = dose: 25.0 mg/kg/injection, schedule: Q01DX009 (ip), vehicle: Klucel (hydroxypropylcellulose) (HPC)
[10] = dose: 50.0 mg/kg/injection, schedule: Q01DX009 (ip), vehicle: Klucel (hydroxypropylcellulose) (HPC)
[11] = dose: 100.0 mg/kg/injection, schedule: Q01DX009 (ip), vehicle: Klucel (hydroxypropylcellulose) (HPC)
[12] = dose: 100.0 mg/kg/injection, schedule: Q04DX003 (ip), vehicle: saline with Tween-80
[13] = dose: 200.0 mg/kg/injection, schedule: Q04DX003 (ip), vehicle: saline with Tween-80
[14] = dose: 200.0 mg/kg/injection, schedule: Q01DX009 (ip), vehicle: Klucel (hydroxypropylcellulose) (HPC)
[15] = dose: 240.0 mg/kg/injection, schedule: Q01DX005 (ip), vehicle: saline
[16] = dose: 50.0 mg/kg/injection, schedule: Q01DX005 (ip), vehicle: Klucel (hydroxypropylcellulose) (HPC)
[17] = dose: 100.0 mg/kg/injection, schedule: Q01DX005 (ip), vehicle: Klucel (hydroxypropylcellulose) (HPC)
[18] = dose: 200.0 mg/kg/injection, schedule: Q01DX005 (ip), vehicle: Klucel (hydroxypropylcellulose) (HPC)

C=CC1OCCCO1
T/C [1]: 100 % of control
T/C [2]: 100 % of control

CNc1nc(-c2ccc(OC)cc2)c(-c2ccc(OC)cc2)[nH]1
T/C (dose: 25.0 mg/kg/injection, schedule: Q04DX002 (ip), vehicle: saline with Tween-80): 108 % of control and 111 % of control
T/C (dose: 50.0 mg/kg/injection, schedule: Q04DX002 (ip), vehicle: saline with Tween-80): 107 % of control
T/C [3]: 99 % of control

CC(C)N1C(=O)C=C(c2ccc([N+](=O)[O-])cc2)C1=O
T/C (dose: 12.5 mg/kg/injection, schedule: Q01DX009 (ip), vehicle: saline with Tween-80): 105 % of control
T/C (dose: 25.0 mg/kg/injection, schedule: Q01DX009 (ip), vehicle: saline with Tween-80): 105 % of control
T/C [4]: 106 % of control

C[C@H]1C(=O)CCC2[C@]3(C)CCC4(CO)[C@@H]5CC(C)(C)C(=O)C[C@]5(C)CC[C@]4(C)C3CC[C@@]21C (some centres undefined)
T/C (dose: 7.75 mg/kg/injection, schedule: Q01DX005 (ip), vehicle: Klucel (hydroxypropylcellulose) (HPC)): 98 % of control
T/C (dose: 15.5 mg/kg/injection, schedule: Q01DX005 (ip), vehicle: Klucel (hydroxypropylcellulose) (HPC)): 91 % of control
T/C (dose: 31.0 mg/kg/injection, schedule: Q01DX005 (ip), vehicle: Klucel (hydroxypropylcellulose) (HPC)): 89 % of control

COc1cc(Br)c(C(=O)N2CCc3cc([N+](=O)[O-])ccc32)cc1OC
T/C (dose: 25.0 mg/kg/injection, schedule: Q01DX009 (ip), vehicle: other): 101 % of control
T/C (dose: 50.0 mg/kg/injection, schedule: Q01DX009 (ip), vehicle: other): 93 % of control
T/C (dose: 100.0 mg/kg/injection, schedule: Q01DX009 (ip), vehicle: other): 89 % of control
T/C (dose: 200.0 mg/kg/injection, schedule: Q01DX009 (ip), vehicle: other): 87 % of control

CC(=O)C(=Cc1ccc(Cl)cc1)C(C)=O
T/C [5]: 97 % of control
T/C [6]: 101 % of control

O=[N+]([O-])c1ccc(CS(=O)(=O)OCCCl)cc1
T/C [5]: 98 % of control
T/C [6]: 98 % of control
T/C (dose: 200.0 mg/kg/injection, schedule: Q01DX005 (ip), vehicle: saline with Tween-80): 94 % of control

OCC(O)C1OC(c2ccccc2)OC2COC(c3ccccc3)OC21 (centres undefined)
T/C [3]: 97 % of control
T/C (dose: 200.0 mg/kg/injection, schedule: Q04DX002 (ip), vehicle: saline with Tween-80): 86 % of control
T/C (dose: 400.0 mg/kg/injection, schedule: Q04DX002 (ip), vehicle: saline with Tween-80): 89 % of control

CC(C)N1C(C)(C)C1(C)C#N (centres undefined)
T/C [1]: 100 % of control
T/C [2]: 104 % of control

COC(=O)Nc1nc2ccc(C(=O)OC)cc2[nH]1
T/C [7]: 102 % of control
T/C [8]: 103 % of control
T/C (dose: 400.0 mg/kg/injection, schedule: Q04DX003 (ip), vehicle: saline): 103 % of control

O=[N+]([O-])c1ccc2c3c(ccc([N+](=O)[O-])c13)CC2
T/C [9]: 93 % of control
T/C [10]: 93 % of control
T/C [11]: 91 % of control

O=C(CC(=O)Oc1ccc(Cl)cc1Cl)Oc1ccc(Cl)cc1Cl
T/C [12]: 95 % of control
T/C [13]: 91 % of control
T/C (dose: 400.0 mg/kg/injection, schedule: Q04DX003 (ip), vehicle: saline with Tween-80): 100 % of control

Nc1nncc(-c2ccccc2)n1
T/C [9]: 97 % of control
T/C [10]: 97 % of control
T/C [11]: 96 % of control
T/C [14]: 110 % of control

CCOP(=O)(CSCCC1(C)NC(=O)NC1=O)OCC (centres undefined)
T/C [1]: 102 % of control
T/C [2]: 103 % of control
T/C [15]: 102 % of control

Cc1cc(N)c(C)c([N+](=O)[O-])c1
T/C (dose: 50.0 mg/kg/injection, schedule: Q04DX003 (ip), vehicle: saline with Tween-80): 95 % of control
T/C [12]: 91 % of control
T/C [13]: 100 % of control

CCOC(=O)C(CC1=CS(=O)(=O)c2ccc(Cl)cc21)(NC(C)=O)C(=O)OCC
T/C [10]: 96 % of control
T/C [11]: 91 % of control
T/C [14]: 87 % of control

[Cl][Pt][Cl].[NH-]CCC[N-]CCCC[N-]CCC[NH-]
T/C (dose: 1.56 mg/kg/injection, schedule: Q04DX003 (ip), vehicle: saline): 88 % of control
T/C (dose: 3.13 mg/kg/injection, schedule: Q04DX003 (ip), vehicle: saline): 98 % of control and 94 % of control
T/C (dose: 6.25 mg/kg/injection, schedule: Q04DX003 (ip), vehicle: saline): 107 % of control
T/C (dose: 12.5 mg/kg/injection, schedule: Q04DX003 (ip), vehicle: saline): 99 % of control and 119 % of control and 123 % of control
T/C (dose: 25.0 mg/kg/injection, schedule: Q04DX003 (ip), vehicle: saline): 102 % of control and 122 % of control

O=C1OCC2C3C=CC(O3)C12 (centres undefined)
T/C [7]: 100 % of control
T/C [8]: 102 % of control

CO/N=C(\C(O)C(C)O)C(OC)C1Cc2cc3cc(OC4CC(OC(C)=O)C(OC5CC(O)C(OC)C(C)O5)C(C)O4)cc(O)c3c(O)c2C(=O)C1OC1CC(OC2CC(OC3CC(C)(O)C(OC(=O)C(C)C)C(C)O3)C(O)C(C)O2)C(O)C(C)O1 (centres undefined)
T/C (dose: 0.13 mg/kg/injection, schedule: Q01DX005 (ip), vehicle: water): 116 % of control
T/C (dose: 0.25 mg/kg/injection, schedule: Q01DX005 (ip), vehicle: water): 116 % of control and 124 % of control
T/C (dose: 1.0 mg/kg/injection, schedule: Q01DX005 (ip), vehicle: water): 160 % of control
T/C (dose: 2.0 mg/kg/injection, schedule: Q01DX005 (ip), vehicle: water): 163 % of control

CCOC(=O)C1(c2ccccc2)C(=O)Oc2ccccc21 (centres undefined)
T/C [4]: 107 % of control
T/C (dose: 100.0 mg/kg/injection, schedule: Q01DX009 (ip), vehicle: saline with Tween-80): 124 % of control
T/C (dose: 200.0 mg/kg/injection, schedule: Q01DX009 (ip), vehicle: saline with Tween-80): 106 % of control

COc1cc([N+](=O)[O-])c(OC)cc1C(C)=O
T/C [16]: 96 % of control
T/C [17]: 93 % of control
T/C [18]: 100 % of control

CCOC(=O)c1c(O)c(C)c(=O)n2c1[nH]c1cc(C)c(C)cc12
T/C (dose: 60.0 mg/kg/injection, schedule: Q01DX005 (ip), vehicle: saline with Tween-80): 93 % of control
T/C (dose: 120.0 mg/kg/injection, schedule: Q01DX005 (ip), vehicle: saline with Tween-80): 98 % of control

Cc1nc2c([N+](=O)[O-])cccc2c2ccccc12
T/C (dose: 100.0 mg/kg/injection, schedule: Q04DX002 (ip), vehicle: Klucel (hydroxypropylcellulose) (HPC)): 94 % of control
T/C (dose: 200.0 mg/kg/injection, schedule: Q04DX002 (ip), vehicle: Klucel (hydroxypropylcellulose) (HPC)): 89 % of control
T/C (dose: 400.0 mg/kg/injection, schedule: Q04DX002 (ip), vehicle: Klucel (hydroxypropylcellulose) (HPC)): 98 % of control

O=C1c2ccccc2-c2ccc(NC(=O)C34CC5CC(CC(C5)C3)C4)cc21
T/C [16]: 86 % of control
T/C [17]: 87 % of control
T/C [18]: 90 % of control

COc1cc2oc3c(c(=O)c2c(O)c1/C=C/C(C)C)C(C=C(C)C)Oc1cc(O)ccc1-3 (centres undefined)
T/C [10]: 124 % of control
T/C [11]: 115 % of control
T/C [14]: 114 % of control

CCOC(=O)Nc1ccc(SCC2COC(Cn3ccnc3)(c3ccc(Cl)cc3Cl)O2)cc1 (centres undefined)
T/C (dose: 12.5 mg/kg/injection, schedule: Q01DX001 (ip), vehicle: saline): 104 % of control
T/C (dose: 25.0 mg/kg/injection, schedule: Q01DX001 (ip), vehicle: saline): 107 % of control
T/C (dose: 50.0 mg/kg/injection, schedule: Q01DX001 (ip), vehicle: saline): 110 % of control

BrCOCCCCOCBr
T/C [1]: 114 % of control
T/C [2]: 101 % of control
T/C [15]: 108 % of control

C1=NCc2nnn(Cc3ccccc3)c2N1
T/C [10]: 102 % of control
T/C [11]: 98 % of control
T/C [14]: 108 % of control
